Experimental findings from patent US11834517B2, “Branched peptides for enzymatic assembly and mitochondria drug delivery” (BRANDEIS UNIVERSITY, priority 2017, dated 2023) are described below.

Peptide text beside a SMILES is read from it. * marks the point of attachment. X2 = O=C(Cc1ccc2ccccc2c1)N[C@H](Cc1ccccc1)C(=O)N[C@H](Cc1ccccc1)C(=O)N[C@H](CCCCN*)C(=O)NCCNc1ccc([N+](=O)[O-])c2nonc12; X3 = O=C(Cc1ccc2ccccc2c1)N[C@@H](Cc1ccccc1)C(=O)N[C@@H](Cc1ccccc1)C(=O)N[C@@H](CCCCN*)C(=O)N[C@@H](Cc1ccc(O)cc1)C(=O)O; X1 = O=C(Cc1ccc2ccccc2c1)N[C@H](Cc1ccccc1)C(=O)N[C@H](Cc1ccccc1)C(=O)N[C@H](CCCCN*)C(=O)N[C@H](Cc1ccc(O)cc1)C(=O)O

For data set [1], the system named is HeLa cells. Nature of the data set: Cell viability / cytotoxicity (MTT) assay, HeLa. Format: cell-based.
The test system of data set [2] is HeLa cells. Nature of the data set: Cell viability after GFP-TP53 plasmid transfection, HeLa. Type of data set: cell-based, human. The following applies: single agent: free GFP-TP53 plasmid (5 μg/mL) or Mito-Flag (200 μM), 3rd day. How it is done:
(§1) FIGS. 24A-G show how perimitochondrial ENS causes mitochondrial transgene expression to induce mitophagy or apoptosis. FIG. 24A is a Western blot analysis of FUNDC1 and LC3B levels in the mitochondria fraction and cytosolic fraction, respectively, of HeLa cells incubated with conditions of interest. VDAC1 serves as mitochondria protein loading control. FUNDC1 plasmid: 5 μg/mL, Mito-Flag: 200 μM, Time: 2 days. FIG. 24B is a panel of fluorescent images showing that Mito-Flag perimitochondrial ENS delivering FUNDC1 gene into mitochondria to induce mitochondrial morphology changes within 2 days. FIG. 24C is a panel of fluorescent images showing that the detection of mitophagy via immunofluorescent staining of autophagy marker, LC3 (2nd day). FIG. 24D is a panel of fluorescent images of HeLa cells incubated with free GFP-TP53 plasmid and the plasmid mixed with Mito-Flag (200 μM, 24 h). FIG. 24E is a graph illustrating cell viability of HeLa, Saos-2, and HS-5 cells incubated with free GFP-TP53 plasmid (5 μg/mL), Mito-Flag (200 μM), and the plasmid (5 μg/mL) mixed with Mito-Flag (200 μM, 3rd day). Data are presented as mean±standard deviation. FIG. 24F is a panel of fluorescent images showing an apoptosis analysis on HeLa and HS-5 cells. […]

The test system of another data set is Saos-2 cell. Nature of the data set: Cell viability after GFP-TP53 plasmid transfection, Saos-2. The following applies: Saos-2, single agent: free GFP-TP53 plasmid or Mito-Flag. Type of data set: cell-based, human. How it is done:
as §1

The next data set deals with HS-5 cells. Nature of the data set: Cell viability after GFP-TP53 plasmid transfection, HS-5. The following applies: HS-5, GFP-TP53 plasmid (5 μg/mL) mixed with Mito-Flag (200 μM), 3rd day. Format: cell-based, human. How it is done:
as §1

The test system of data set [3] is HeLa cells. Nature of the data set: Uptake and mitochondrial localization of NBD-Mito-Flag in HeLa cells in the presence of inhibitors. Format: cell-based, human. The following applies: NBD-Mito-Flag 200 μM; for mitochondrial localization of NBD-Mito-Flag: HeLa, with inhibitor (chloroquine 10 μM; erastin; Ndz 10 μM, 1 h pretreatment; FCCP pretreatment); for uptake of NBD-Mito-Flag (intracellular fluorescence): 2 h, with endocytosis inhibitor (CPZ 5 μM). How it is done: FIG. 26B is a panel of confocal fluorescence images of HeLa cells incubated with NBD-Mito-Flag (200 μM) and chloroquine (10 μM). […] FIG. 26D is a panel of TEM images of mitochondria isolated from HeLa, HEK293 and HS-5 cells incubated with 200 μM Mito-Flag for 24 h. […] FIG. 26E and FIG. 26F are fluorescent images of NBD-Mito-Flag and RFP-LAMP1 in ENTK-knockdown HeLa cells. […] FIG. 26G-H are fluorescent images of the HeLa cells incubated with NBD-Mito-Flag (200 μM, 2 h) (FIG. 26G) or the mixture of virus (RFP-LAMP1) and Mito-Flag (200 μM, 24 h) (FIG. 26H) in the presence of erastin of different concentrations. […] FIG. 26I is a panel of fluorescent images of HeLa cells incubated with NBD-Mito-Flag (200 μM, 2 h) after the pretreatment by Ndz (10 μM, 1 h).
Intracellular Fluorescence Quantification: Cells were seeded in petri dishes and incubated in standard condition for 12 h before experiment. After being treated by the condition of interest, all cells were washed by PBS (3 time for 5 min). After the washing step, cells were detached from the dishes using trypsin. The trypsin was removed by centrifuge and washing with PBS. The cell suspensions (in PBS) were diluted to 10^5 cell/mL. 100 μL diluted cell suspension was added in a 96-well plate (at least 5 wells per sample). The intracellular fluorescence intensity was immediately determined using a DTX 880 Multimode Detector (Beckman Coulter Inc.). The experiments were repeated, and the intracellular fluorescence intensity was averaged (n>3).

Another data set concerns MT-CO1-KO cancer cells. Nature of the data set: Sensitivity of MT-CO1-KO cancer cells to chemotherapeutic agents. Format: cell-based, human. The following applies: MT-CO1 knocked out via Mito-Flag and CRISPR-MT-CO1 plasmid.

As to `NCCCC[C@H](NC(=O)[C@H](CC(=O)O)NC(=O)[C@H](CC(=O)O)NC(=O)[C@H](CC(=O)O)NC(=O)[C@H](CC(=O)O)NC(=O)[C@H](CCCCN)NC(=O)[C@H](Cc1ccc(O)cc1)NC(=O)[C@@H](N)CC(=O)O)C(=O)NCC(=O)NCCCC[C@@H](NC(=O)[C@@H](Cc1ccccc1)NC(=O)[C@@H](Cc1ccccc1)NC(=O)Cc1ccc2ccccc2c1)C(=O)NCCNc1ccc([N+](=O)[O-])c2nonc12` [D-1 ? FLAG] (H-DYKDDDDKG-X2), the “cytotoxicity of branched peptide alone” value in the data set on HeLa cells [1] and in the data set on U87MG cells was “little cytotoxicity” throughout.
On to `NCCCC[C@H](NC(=O)[C@H](CC(=O)O)NC(=O)[C@H](CC(=O)O)NC(=O)[C@H](CC(=O)O)NC(=O)[C@H](CC(=O)O)NC(=O)[C@H](CCCCN)NC(=O)[C@H](Cc1ccc(O)cc1)NC(=O)[C@@H](N)CC(=O)O)C(=O)NCC(=O)NCCCC[C@@H](NC(=O)[C@@H](Cc1ccccc1)NC(=O)[C@@H](Cc1ccccc1)NC(=O)Cc1ccc2ccccc2c1)C(=O)N[C@H](Cc1ccc(O)cc1)C(=O)O` [D-2 ? FLAG] (H-DYKDDDDKG-X1), for which the “cytotoxicity of branched peptide alone” value with HeLa cells [1] and in the data set on U87MG cells was “minimal cytotoxicity” in each case. The cell viability entry is “hardly causes cell death” in the data set with HeLa cells [2]; “innoxious” in the data set with Saos-2 cell; “neither free GFP-TP53 plasmid nor the mixture of Mito-Flag and GFP-TP53 plasmid impairs the viability of HS-5 cells” in the data set on HS-5 cells.
For the compound `N#CC(C#N)=NNc1ccc(OC(F)(F)F)cc1` [FCCP, p-trifluoromethoxy carbonylcyanide phenylhydrazone], in the data set with HeLa cells [3], the “mitochondrial localization of NBD-Mito-Flag” value (“mitochondrial localization” for short) is listed as “diminishes the mitochondria-specific localization”.
Turning to `NCCCC[C@H](NC(=O)[C@H](CC(=O)O)NC(=O)[C@H](CC(=O)O)NC(=O)[C@H](CC(=O)O)NC(=O)[C@H](CC(=O)O)NC(=O)[C@H](CCCCN)NC(=O)[C@H](Cc1ccc(O)cc1)NC(=O)[C@@H](N)CC(=O)O)C(=O)NCC(=O)NCCCC[C@H](NC(=O)[C@H](Cc1ccccc1)NC(=O)[C@H](Cc1ccccc1)NC(=O)Cc1ccc2ccccc2c1)C(=O)N[C@@H](Cc1ccc(O)cc1)C(=O)O` [L-2 ? FLAG] (H-DYKDDDDKG-X3), the “cytotoxicity of branched peptide alone” value with HeLa cells [1] and in the data set with U87MG cells was “minimal cytotoxicity” throughout.
Turning to `CCN(CC)CCCC(C)Nc1ccnc2cc(Cl)ccc12` (stereo not drawn) [chloroquine], the “mitochondrial localization” value with HeLa cells [3] was “significantly reduced mitochondrial localization”.
As for `CN(C)CCCN1c2ccccc2Sc2ccc(Cl)cc21` [chlorpromazine], in the data set with HeLa cells [3], the “uptake of NBD-Mito-Flag (intracellular fluorescence)” value was “significantly decreases the intracellular fluorescence”.
Consider `N.N.[Cl][Pt][Cl]` [cisplatin], for which the “sensitivity of MT-CO1-KO cancer cells versus wild type” value with MT-CO1-KO cancer cells was “more sensitive”.
As to `COC(=O)Nc1nc2ccc(C(=O)c3cccs3)cc2[nH]1` [nocodazole], the “mitochondrial localization” value in the data set on HeLa cells [3] was “weakened mitochondrial fluorescence”.
On to M-β-CD, for which the “uptake of NBD-Mito-Flag (intracellular fluorescence)” value in the data set on HeLa cells [3] is listed as “hardly affects the uptake”.
